± gives the expanded uncertainty stated by the source.
Conditions: 101.33 kPa, Liquid
[1] = 278 K, Concentric cylinders viscometry
[2] = 283 K, Concentric cylinders viscometry
[3] = 283 K, Falling or rolling sphere viscometry
[4] = 288 K, Concentric cylinders viscometry
[5] = 293 K, Concentric cylinders viscometry
[6] = 293 K, Falling or rolling sphere viscometry
[7] = 298 K, Concentric cylinders viscometry
[8] = 303 K, Concentric cylinders viscometry
[9] = 308 K, Concentric cylinders viscometry
[10] = 313 K, Concentric cylinders viscometry
[11] = 313 K, Falling or rolling sphere viscometry
[12] = 318 K, Concentric cylinders viscometry
[13] = 323 K, Concentric cylinders viscometry
[14] = 328 K, Concentric cylinders viscometry
[15] = 333 K, Concentric cylinders viscometry
[16] = 333 K, Falling or rolling sphere viscometry
[17] = 338 K, Concentric cylinders viscometry
[18] = 343 K, Concentric cylinders viscometry
[19] = 348 K, Concentric cylinders viscometry
[20] = 353 K, Concentric cylinders viscometry
[21] = 353 K, Falling or rolling sphere viscometry
[22] = 358 K, Concentric cylinders viscometry
[23] = 373 K, Falling or rolling sphere viscometry
[24] = 393 K, Falling or rolling sphere viscometry
[25] = 363 K, Concentric cylinders viscometry

Row | Compound | viscosity [1] [mPa·s] | viscosity [2] [mPa·s] | viscosity [4] [mPa·s] | viscosity [5] [mPa·s] | viscosity [6] [mPa·s] | viscosity [7] [mPa·s] | viscosity [8] [mPa·s] | viscosity [9] [mPa·s] | viscosity [10] [mPa·s] | viscosity [11] [mPa·s] | viscosity [12] [mPa·s] | viscosity [13] [mPa·s] | viscosity [14] [mPa·s] | viscosity [15] [mPa·s] | viscosity [16] [mPa·s] | viscosity [17] [mPa·s] | viscosity [18] [mPa·s] | viscosity [19] [mPa·s] | viscosity [20] [mPa·s] | viscosity [22] [mPa·s] | other results
1 | CCCCCCCCCCn1cc[n+](C)c1.O=S(=O)([N-]S(=O)(=O)C(F)(F)F)C(F)(F)F | 403.2 ± 23 | 287.62 ± 16 | 210.53 ± 11 | 157.52 ± 8.2 | 159.41 ± 9.8 | 120.18 ± 6.2 | 93.45 ± 4.8 | 73.92 ± 3.7 | 59.37 ± 3 | 60.51 ± 3.1 | 48.36 ± 2.4 | 39.91 ± 2 | 33.32 ± 1.7 | 28.12 ± 1.4 | 29.3 ± 1.5 | 23.97 ± 1.2 | 20.62 ± 1 | 17.88 ± 0.9 | 15.63 ± 0.79 | 13.75 ± 0.69 | viscosity [3]: 292.44 ± 22 mPa·s; viscosity [21]: 16.14 ± 0.82 mPa·s; viscosity [23]: 10 ± 0.51 mPa·s; viscosity [24]: 6.8 ± 0.34 mPa·s
2 | CCCCCn1cc[n+](C)c1.O=S(=O)([N-]S(=O)(=O)C(F)(F)F)C(F)(F)F | 164.73 ± 8.6 | 123.09 ± 6.3 | 93.65 ± 4.8 | 72.76 ± 3.7 | 78.44 ± 4.1 | 57.81 ± 2.9 | 46.38 ± 2.3 | 37.92 ± 1.9 | 31.43 ± 1.6 | 33.94 ± 1.7 | 26.38 ± 1.3 | 22.4 ± 1.1 | 19.2 ± 0.97 | 16.6 ± 0.84 | 18.52 ± 0.94 | 14.48 ± 0.73 | 12.73 ± 0.64 | 11.27 ± 0.57 | 10.04 ± 0.51 | 8.996 ± 0.45 | viscosity [3]: 133.33 ± 7.8 mPa·s; viscosity [21]: 10.89 ± 0.55 mPa·s; viscosity [23]: 7.19 ± 0.36 mPa·s; viscosity [24]: 5.15 ± 0.26 mPa·s
3 | CCCCCCCCC[n+]1ccn(C)c1.O=S(=O)([N-]S(=O)(=O)C(F)(F)F)C(F)(F)F | – | – | – | – | – | – | – | – | – | – | – | – | – | – | – | – | – | – | – | – | viscosity (278 K, Capillary tube (Ostwald / Ubbelohde) method): 348.2 ± 20 mPa·s; viscosity (283 K, Capillary tube (Ostwald / Ubbelohde) method): 249.7 ± 14 mPa·s; viscosity (288 K, Capillary tube (Ostwald / Ubbelohde) method): 183.88 ± 10 mPa·s; viscosity (293 K, Capillary tube (Ostwald / Ubbelohde) method): 138.55 ± 7.3 mPa·s; viscosity (298 K, Capillary tube (Ostwald / Ubbelohde) method): 106.41 ± 5.5 mPa·s; viscosity (303 K, Capillary tube (Ostwald / Ubbelohde) method): 83.35 ± 4.2 mPa·s; viscosity (308 K, Capillary tube (Ostwald / Ubbelohde) method): 66.2 ± 3.3 mPa·s; viscosity (313 K, Capillary tube (Ostwald / Ubbelohde) method): 53.43 ± 2.7 mPa·s; viscosity (318 K, Capillary tube (Ostwald / Ubbelohde) method): 43.76 ± 2.2 mPa·s; viscosity (323 K, Capillary tube (Ostwald / Ubbelohde) method): 36.28 ± 1.8 mPa·s; viscosity (328 K, Capillary tube (Ostwald / Ubbelohde) method): 30.43 ± 1.5 mPa·s; viscosity (333 K, Capillary tube (Ostwald / Ubbelohde) method): 25.77 ± 1.3 mPa·s; viscosity (338 K, Capillary tube (Ostwald / Ubbelohde) method): 22.12 ± 1.1 mPa·s; viscosity (343 K, Capillary tube (Ostwald / Ubbelohde) method): 19.09 ± 0.96 mPa·s; viscosity (348 K, Capillary tube (Ostwald / Ubbelohde) method): 16.61 ± 0.84 mPa·s; viscosity (353 K, Capillary tube (Ostwald / Ubbelohde) method): 14.53 ± 0.73 mPa·s; viscosity (358 K, Capillary tube (Ostwald / Ubbelohde) method): 12.82 ± 0.65 mPa·s; viscosity (363 K, Capillary tube (Ostwald / Ubbelohde) method): 11.4 ± 0.57 mPa·s
4 | CCn1cc[n+](C)c1.O=S(=O)([N-]S(=O)(=O)C(F)(F)F)C(F)(F)F | 76.05 ± 3.9 | 60.15 ± 3.1 | 48.47 ± 2.5 | 39.71 ± 2 | 39.54 ± 2 | 33 ± 1.7 | 27.78 ± 1.4 | 23.66 ± 1.2 | 20.37 ± 1 | 20.49 ± 1.1 | 17.69 ± 0.9 | 15.5 ± 0.79 | 13.68 ± 0.7 | 12.16 ± 0.62 | 12.42 ± 0.64 | 10.87 ± 0.56 | 9.784 ± 0.5 | 8.848 ± 0.45 | 8.041 ± 0.41 | 7.34 ± 0.38 | viscosity [3]: 59.8 ± 3.1 mPa·s; viscosity [21]: 8.036 ± 0.41 mPa·s
5 | CCCn1cc[n+](C)c1.O=S(=O)([N-]S(=O)(=O)C(F)(F)F)C(F)(F)F | 122.17 ± 6.4 | 92.6 ± 4.8 | 71.78 ± 3.7 | 56.78 ± 2.9 | 56.4 ± 2.9 | 45.75 ± 2.3 | 37.43 ± 1.9 | 31.07 ± 1.6 | 26.13 ± 1.3 | 26.17 ± 1.3 | 22.23 ± 1.1 | 19.11 ± 0.98 | 16.58 ± 0.85 | 14.5 ± 0.74 | 14.82 ± 0.76 | 12.79 ± 0.65 | 11.35 ± 0.58 | 10.14 ± 0.52 | 9.118 ± 0.47 | 8.24 ± 0.42 | viscosity [21]: 9.251 ± 0.48 mPa·s; viscosity [23]: 6.32 ± 0.33 mPa·s
6 | CCCCCCCCCCCCCCn1cc[n+](C)c1.O=S(=O)([N-]S(=O)(=O)C(F)(F)F)C(F)(F)F | – | – | – | – | – | – | – | – | 98.04 ± 5 | – | 78.06 ± 3.9 | 63.09 ± 3.2 | 51.68 ± 2.6 | 42.83 ± 2.2 | – | 35.87 ± 1.8 | 30.36 ± 1.5 | 25.93 ± 1.3 | 22.33 ± 1.1 | 19.38 ± 0.98 | viscosity [25]: 16.95 ± 0.85 mPa·s
7 | CCCCCCCCn1cc[n+](C)c1.O=S(=O)([N-]S(=O)(=O)C(F)(F)F)C(F)(F)F | 297.03 ± 16 | 214.79 ± 11 | 159.11 ± 8.3 | 120.46 ± 6.2 | – | 93.05 ± 4.7 | 73.2 ± 3.7 | 58.53 ± 2.9 | 47.5 ± 2.4 | – | 39.09 ± 2 | 32.56 ± 1.6 | 27.43 ± 1.4 | 23.35 ± 1.2 | – | 20.06 ± 1 | 17.38 ± 0.88 | 15.18 ± 0.76 | 13.35 ± 0.67 | 11.83 ± 0.6 | –
8 | CCCCCCCCCCCCn1cc[n+](C)c1.O=S(=O)([N-]S(=O)(=O)C(F)(F)F)C(F)(F)F | – | 384.51 ± 22 | 277.46 ± 15 | 205 ± 11 | – | 154.33 ± 8.1 | 118.68 ± 6.1 | 93.71 ± 4.8 | 74.49 ± 3.8 | – | 60.08 ± 3 | 49.11 ± 2.5 | 40.64 ± 2 | 34.01 ± 1.7 | – | 28.76 ± 1.4 | 24.55 ± 1.2 | 21.14 ± 1.1 | 18.35 ± 0.92 | 16.05 ± 0.81 | viscosity [25]: 14.12 ± 0.71 mPa·s
9 | CCCCCC[n+]1ccn(C)c1.O=S(=O)([N-]S(=O)(=O)C(F)(F)F)C(F)(F)F | 212.3 ± 12 | 155.94 ± 8.2 | 117.29 ± 6.1 | 90.13 ± 4.6 | 87.84 ± 4.7 | 70.61 ± 3.6 | 56.3 ± 2.9 | 45.61 ± 2.3 | 37.47 ± 1.9 | 37.08 ± 1.9 | 31.19 ± 1.6 | 26.25 ± 1.3 | 22.35 ± 1.1 | 19.2 ± 0.98 | 19.29 ± 0.99 | 16.65 ± 0.85 | 14.55 ± 0.74 | 12.81 ± 0.65 | 11.35 ± 0.58 | 10.13 ± 0.52 | viscosity [21]: 11.48 ± 0.59 mPa·s; viscosity [23]: 7.46 ± 0.38 mPa·s; viscosity [24]: 5.28 ± 0.27 mPa·s
10 | CCCCCCCn1cc[n+](C)c1.O=S(=O)([N-]S(=O)(=O)C(F)(F)F)C(F)(F)F | 235 ± 13 | 182.82 ± 9.6 | 136.42 ± 7.1 | 104.17 ± 5.3 | – | 81.11 ± 4.1 | 64.28 ± 3.2 | 51.75 ± 2.6 | 42.28 ± 2.1 | – | 34.99 ± 1.8 | 29.3 ± 1.5 | 24.81 ± 1.2 | 21.2 ± 1.1 | – | 18.3 ± 0.92 | 15.92 ± 0.8 | 13.95 ± 0.7 | 12.31 ± 0.62 | 10.93 ± 0.55 | viscosity [25]: 9.753 ± 0.49 mPa·s
11 | CCCC[n+]1ccn(C)c1.O=S(=O)([N-]S(=O)(=O)C(F)(F)F)C(F)(F)F | 137.62 ± 7.1 | 104.14 ± 5.3 | 80.16 ± 4.1 | 62.99 ± 3.2 | 63.05 ± 3.2 | 50.62 ± 2.5 | 41.12 ± 2.1 | 33.89 ± 1.7 | 28.28 ± 1.4 | 28.63 ± 1.5 | 23.92 ± 1.2 | 20.45 ± 1 | 17.66 ± 0.89 | 15.38 ± 0.77 | 16 ± 0.81 | 13.5 ± 0.68 | 11.93 ± 0.6 | 10.61 ± 0.53 | 9.501 ± 0.48 | 8.553 ± 0.43 | viscosity [21]: 9.911 ± 0.5 mPa·s; viscosity [23]: 6.548 ± 0.33 mPa·s; viscosity [24]: 4.785 ± 0.24 mPa·s
